Patent publication US6864253B2, “Benzo[4,5]thieno[2,3-c]pyridine and Benzo[4,5]furo[2,3-c]pyridine Derivatives Useful as Inhibitors of Phosphodiesterase” (Orth-McNeil Pharmaceutical, Inc., priority 2000, dated 2005)
“And” between values parts separate entries of the source, which are not always exact repeats. Identical values can stand only once.

target: PDEV (Oryctolagus cuniculus, UniProt G1SX67); experiment: Cyclic nucleotide phosphodiesterase (PDE) assay, inhibition of PDEV isolated from rabbit tissue; assay type: biochemical; conditions: 10 μM test compound; rabbit PDEV
Protocol: Briefly, rabbit or human tissues were homogenized in an ice-cold buffer solution containing 20 mM HEPES (pH 7.2), 0.25M sucrose, 1 mM EDTA, and 1 mM phenylmethylsulphonyl fluoride (PMSF). The homogenates were centrifuged at 100,000 g for 60 minutes at 4° C. The supernatant was filtered through […] filter and loaded on a Pharmacia Mono Q anion exchange column (1 ml bed volume) that was equilibrated with 20 mM HEPES, 1 mM EDTA and 0.5 mM PMSF. […] The fractions comprising various PDE activities were pooled separately and used in later studies.
The assays were adapted to a 96-well format. The enzyme was assayed in 5 mM MgCl2, 15 mM Tris HCl (pH 7.4), 0.5 mg/ml bovine serum albumin, 1 μM cGMP or cAMP, 0.1 μCi [^3H]-cGMP or [^3H]-cAMP, and 2-10 μl of column elution. The total volume of the assay was 100 μl. The reaction mixture was incubated at 30° C. for 30 minutes. The reaction was stopped by boiling for 1 minute and then cooled down on ice. The resulting [^3H] 5′-mononucleotides were further converted to uncharged [^3H]-nucleosides by adding 25 μl 1 mg/ml snake venom (Ophiophagus hannah) and incubating at 30° C. for 10 minute. The reaction was stopped by the addition of 1 ml Bio-Rad AG1-X2 resin slurry (1:3). All the charged nucleotides were bound by the resin and only the uncharged [^3H]-nucleosides remained in the supernatant after centrifuging. An aliquot of 200 μl was taken and counted by liquid scintillation. PDE activity was expressed as pmol cyclic nucleotide hydrolyzed/min/ml of enzyme preparation.
Inhibitor studies were carried out in assay buffer with a final concentration of 10% DMSO.

Row | Structure (SMILES) | % Inh @ 10 μM (rabbit) [%] | % INH @ 10 μM (rabbit) [%]
1 | O=C(c1ccc(-c2cccc(C(F)(F)F)c2)o1)N1CCc2c(n(Cc3ccncc3)c3ccccc23)C1c1ccc2c(c1)OCO2 (centres unmarked) [Cmpd 74] | 84 | –
2 | O=C(c1ccc(-c2cccc(C(F)(F)F)c2)o1)N1CCc2c(n(CCN3CCOCC3)c3ccccc23)C1c1ccc2c(c1)OCO2 (centres unmarked) [Cmpd 28] | 94 | –
3 | O=C(c1ccc(-c2cc(C(F)(F)F)ccc2Cl)o1)N1CCc2c([nH]c3ccccc23)C1c1ccc2c(c1)OCO2 (centres unmarked) [Cmpd 57] | 76 | –
4 | O=C(c1cnn(-c2ccccc2)c1C(F)(F)F)N1CCc2c([nH]c3ccccc23)C1c1ccc(Cl)c(C(F)(F)F)c1 (centres unmarked) [Cmpd 127] | 13 | –
5 | COC(=O)C1Cc2c([nH]c3ccccc23)C(c2ccc3c(c2)OCO3)N1C(=O)c1ccc(-c2cccc([N+](=O)[O-])c2)o1 (centres unmarked) [Cmpd 73] | 20 | –
6 | CN(C)CCn1c2c(c3ccccc31)CCN(c1nc3ccccc3s1)C2c1ccc2c(c1)OCO2 (centres unmarked) [Cmpd 2] | 43 | –
7 | COC(=O)c1ccc(C2c3[nH]c4ccccc4c3CCN2C(=O)c2cc(C(C)(C)C)nn2Cc2ccccc2)cc1 (centres unmarked) [Cmpd 140] | 8 | –
8 | O=C(c1ccc(-c2cccc([N+](=O)[O-])c2)o1)N1CCc2c([nH]c3ccccc23)C1c1ccc([N+](=O)[O-])cc1 (centres unmarked) [Cmpd 85] | 26 | –
9 | CC(C)(C)c1ccc(C(=O)N2CCc3c([nH]c4ccccc34)C2c2ccc3c(c2)OCO3)o1 (centres unmarked) [Cmpd 65] | 66 | –
10 | O=C(O)Cn1c2c(c3ccccc31)CCN(C(=O)c1ccc(-c3cccc([N+](=O)[O-])c3)o1)C2c1ccc2c(c1)OCO2 (centres unmarked) [Cmpd 30] | 93 | –
11 | CN(C)CCn1c2c(c3ccccc31)CCN(c1ncc(-c3ccc(Cl)cc3)cn1)C2c1ccc2c(c1)OCO2 (centres unmarked) [Cmpd 4] | 94 | –
12 | O=C(c1cc2ccccc2s1)N1CCc2c([nH]c3ccccc23)C1c1ccc2c(c1)OCO2 (centres unmarked) [Cmpd 18] | 87 | –
13 | O=C(c1ccc([N+](=O)[O-])o1)N1CCc2c([nH]c3ccccc23)C1c1ccc2c(c1)OCO2 (centres unmarked) [Cmpd 64] | 83 | –
14 | COC(=O)CCn1c2c(c3ccccc31)CCN(C(=O)c1ccc(-c3cccc(C(F)(F)F)c3)o1)C2c1ccc2c(c1)OCO2 (centres unmarked) [Cmpd 23] | 30 | –
15 | COC(=O)Cn1c2c(c3ccccc31)CCN(C(=O)c1ccc(-c3cccc([N+](=O)[O-])c3)o1)C2c1ccc2c(c1)OCO2 (centres unmarked) [Cmpd 24] | 40 | –
16 | O=C(c1ccc(-c2cccc(C(F)(F)F)c2)o1)N1CCc2c([nH]c3ccccc23)C1c1ccc2c(c1)OC(F)(F)O2 (centres unmarked) [Cmpd 22] | 16 | –
17 | O=C(c1ccc(-c2ccc([N+](=O)[O-])cc2)o1)N1CCc2c([nH]c3ccccc23)C1c1ccc2c(c1)OCO2 (centres unmarked) [Cmpd 50] | 76 | –
18 | Cc1cc(C)cc(C2c3[nH]c4ccccc4c3CCN2C(=O)c2c(-c3ccccc3)noc2C)c1 (racemic) [Cmpd 113] | 29 | –
19 | COC(=O)Cn1c2c(c3ccccc31)CCN(C(=O)c1ccc(-c3cccc(C(F)(F)F)c3)o1)C2c1ccc2c(c1)OCO2 (centres unmarked) [Cmpd 25] | 20 | –
20 | O=C(c1ccc(-c2cccc(C(F)(F)F)c2)o1)N1CCc2c([nH]c3ccccc23)C1c1ccc([N+](=O)[O-])cc1 (centres unmarked) [Cmpd 84] | 20 | –
21 | CN(C)CCCCn1c2c(c3ccccc31)CCN(C(=O)c1ccc(-c3cccc(C(F)(F)F)c3)o1)C2c1ccc2c(c1)OCO2 (centres unmarked) [Cmpd 34] | 67 | –
22 | COc1ccc(C2c3[nH]c4ccccc4c3CCN2C(=O)c2c(-c3ccccc3)noc2C)cc1 (racemic) [Cmpd 117] | 32 | –
23 | O=C(c1ccc(-c2cccc(C(F)(F)F)c2)o1)N1CCc2c([nH]c3ccccc23)C1c1ccncc1 (centres unmarked) [Cmpd 87] | 34 | –
24 | COc1ccc2cc(C(=O)N3CCc4c([nH]c5ccccc45)C3c3ccc4c(c3)OCO4)oc2c1 (centres unmarked) [Cmpd 15] | 90 | –
25 | Cc1ccc(-c2cnc(N3CCc4c(n(-c5ncc(-c6ccc(C)cc6)cn5)c5ccccc45)C3c3ccc4c(c3)OCO4)nc2)cc1 (centres unmarked) [Cmpd 166] | – | 58

Row | Structure (SMILES) | % Inh @ 10 μM (rabbit) [%] | % INH @ 10 μM (rabbit) [%]
26 | Cc1cc(C(=O)N2CCc3c([nH]c4ccccc34)C2c2ccc3c(c2)OCO3)nn1-c1ccccc1 (racemic) [Cmpd 106] | 70 | –
27 | COC(=O)c1ccc(C2c3[nH]c4ccccc4c3CCN2C(=O)c2cnn(-c3ccccc3)c2C(F)(F)F)cc1 (centres unmarked) [Cmpd 129] | 46 | –
28 | O=C(c1cc2cc([N+](=O)[O-])ccc2o1)N1CCc2c([nH]c3ccccc23)C1c1ccc2c(c1)OCO2 (centres unmarked) [Cmpd 14] | 88 | –
29 | O=C(c1cnn(-c2ccccc2)c1C(F)(F)F)N1CCc2c([nH]c3ccccc23)C1c1ccc2c(c1)OCO2 (centres unmarked) [Cmpd 123] | 56 | –
30 | COC(=O)c1ccc(C2c3[nH]c4ccccc4c3CCN2C(=O)c2c(-c3ccccc3)noc2C)cc1 (racemic) [Cmpd 116] | 32 | –
31 | CS(=O)(=O)c1ccc(-c2cnc(N3CCc4c([nH]c5ccccc45)C3c3ccc4c(c3)OCO4)nc2)c([N+](=O)[O-])c1 (centres unmarked) [Cmpd 8] | 89 | –
32 | CN(C)CCn1c2c(c3ccccc31)CCN(C(=O)c1ccc(-c3ccc([N+](=O)[O-])cc3)o1)C2c1ccc2c(c1)OCO2 (centres unmarked) [Cmpd 37] | 95 | –
33 | Nc1cccc(-c2ccc(C(=O)N3CCc4c([nH]c5ccccc45)C3c3ccc4c(c3)OCO4)o2)c1 (centres unmarked) [Cmpd 59] | 92 | –
34 | O=C(c1ccc(-c2ccc(Cl)cc2)o1)N1CCc2c(sc3ccccc23)C1c1ccc2c(c1)OCO2 (centres unmarked) [Cmpd 77] | 58 | –
35 | Cc1ccc(C2c3[nH]c4ccccc4c3CCN2C(=O)c2cnn(-c3ccccc3)c2C(F)(F)F)cc1C (racemic) [Cmpd 119] | 28 | –
36 | COc1ccc(-c2cnc(N3CCc4c([nH]c5ccccc45)C3c3ccc4c(c3)OCO4)nc2)cc1 (centres unmarked) [Cmpd 9] | 80 | –
37 | Cc1ccc(C2c3[nH]c4ccccc4c3CCN2C(=O)c2cc(C(C)(C)C)nn2Cc2ccccc2)cc1C (centres unmarked) [Cmpd 135] | 8 | –
38 | N#Cc1ccc(C2c3[nH]c4ccccc4c3CCN2C(=O)c2ccc(-c3cccc([N+](=O)[O-])c3)o2)cc1 (centres unmarked) [Cmpd 80] | 27 | –
39 | CN(C)CCn1c2c(c3ccccc31)CCN(C(=O)c1ccc(-c3ccccc3[N+](=O)[O-])o1)C2c1ccc2c(c1)OCO2 (centres unmarked) [Cmpd 41] | 93 | –
40 | c1ccc2oc(N3CCc4c(n(-c5nc6ccccc6o5)c5ccccc45)C3c3ccc4c(c3)OCO4)nc2c1 (centres unmarked) [Cmpd 150] | – | 4
41 | CN(C)CCNC(=O)C1Cc2c([nH]c3ccccc23)C(c2ccc3c(c2)OCO3)N1C(=O)c1ccc(-c2cccc(C(F)(F)F)c2)o1 (centres unmarked) [Cmpd 69] | 21 | –
42 | Cc1ccc(-c2ccc(C(=O)N3CCc4c(n(CCN(C)C)c5ccccc45)C3c3ccc4c(c3)OCO4)o2)c([N+](=O)[O-])c1 (centres unmarked) [Cmpd 42] | 89 | –
43 | O=C(c1ccc(-c2cccc(C(F)(F)F)c2)o1)N1CCc2c([nH]c3ccccc23)C1c1cccnc1 (centres unmarked) [Cmpd 78] | 35 | –
44 | Cc1ccc(C2c3[nH]c4ccccc4c3CCN2C(=O)c2c(-c3ccccc3)noc2C)cc1C (racemic) [Cmpd 111] | 35 | –
45 | CN(C)CCOC(=O)C1Cc2c([nH]c3ccccc23)C(c2ccc3c(c2)OCO3)N1C(=O)c1ccc(-c2cccc([N+](=O)[O-])c2)o1 (centres unmarked) [Cmpd 68] | 35 | –
46 | Cc1oc(-c2ccccc2)cc1C(=O)N1CCc2c([nH]c3ccccc23)C1c1ccc2c(c1)OCO2 (racemic) [Cmpd 104] | 72 | –
47 | CN(C)CCn1c2c(c3ccccc31)CCN(C(=O)c1ccc(-c3cccc(C(F)(F)F)c3)o1)C2c1ccc2c(c1)OCO2 (centres unmarked) [Cmpd 35] | 98 | –
48 | FC(F)(F)c1cccc(-c2ccc(CN3CCc4c([nH]c5ccccc45)C3c3ccc4c(c3)OCO4)o2)c1 (centres unmarked) [Cmpd 12] | 76 | –
49 | CC(C)(C)c1cc(C(=O)N2CCc3c([nH]c4ccccc34)C2c2ccc(Cl)c(C(F)(F)F)c2)n(Cc2ccccc2)n1 (centres unmarked) [Cmpd 138] | 13 | –
50 | CC(=O)Nc1ccc(-c2ccc(C(=O)N3CCc4c([nH]c5ccccc45)C3c3ccc4c(c3)OCO4)o2)cc1 (centres unmarked) [Cmpd 49] | 60 | –

same assay, conditions: 10 μM test compound; rabbit PDEV; 10 µM

Row | Structure (SMILES) | % Inh @ 10 μM (rabbit)
51 | O=C(c1ccc(-c2ccc(Cl)cc2[N+](=O)[O-])o1)N1CCc2c([nH]c3ccccc23)C1c1ccc2c(c1)OCO2 (centres unmarked) [Cmpd 47] | 83%
52 | O=C(c1ccc(-c2ccc(Cl)cc2[N+](=O)[O-])o1)N1CCc2c([nH]c3ccccc23)C1c1ccc2c(c1)OCO2 (centres unmarked) [Cmpd 66] | 23%
53 | CCN(CC)CCn1c2c(c3ccccc31)CCN(C(=O)c1ccc(-c3cccc(C(F)(F)F)c3)o1)C2c1ccc2c(c1)OCO2 (centres unmarked) [Cmpd 33] | 88% and 63%

same assay, conditions: 10 μM test compound; rabbit PDEV; read-out: % INH @ 10 μM (rabbit)

Row | Structure (SMILES) | inhibition at 10 µM [%]
54 | CN(C)CCn1c2c(c3ccccc31)CCN(C(=O)c1cc3ccccc3o1)C2c1ccc2c(c1)OCO2 (centres unmarked) [Cmpd 147] | 52
55 | COc1ccc(-c2cnc(N3CCc4c(n(CCN5CCCC5)c5ccccc45)C3c3ccc4c(c3)OCO4)nc2)cc1 (centres unmarked) [Cmpd 148] | 66
56 | c1ccc2oc(N3CCc4c([nH]c5ccccc45)C3c3ccc4c(c3)OCO4)nc2c1 (centres unmarked) [Cmpd 151] | 95
